{"source": "patent US20180327367A1", "about": "“MACROCYCLIC BROAD SPECTRUM ANTIBIOTICS” (priority 2015, published 2018)", "format_in_all_cases": "cell-based", "key": {"[1]": {"test_system": "Escherichia coli MC4100 harboring the IMP4213 (E. coli IMP)", "assay": "microbe, parasite or virus in culture", "details": "Escherichia coli, 22 h, read-out: MIC (μg/mL) E. coli IMP, E. coli MC4100 IMP4213, increased outer-membrane permeability; 35° C., 22 hours", "description": "(§1) In vitro antimicrobial activity of each compound was determined by measuring minimal inhibitor concentrations (MICs) using the broth micro-dilution technique as approved by the Clinical and Laboratory Standards Institute (CLSI) (Methods for Dilution Antimicrobial Susceptibility Tests for Bacteria that Grow Aerobically; Approved Standard—Eighth Edition. CLSI document M07-A8. Wayne, Pa.: Clinical and Laboratory Standards; 2009). Antibacterial activity was measure against three strains of bacteria: a Methicillin Resistant Staphylococcus aureus strain USA 300, NRS384 (S. aureus); a strain of Escherichia coli MC4100 harboring the IMP4213 (E. coli IMP), which results in increased outer-membrane permeability (B Martin and Silhavy T. Imp/OstA is required for cell envelope biogenesis in Escherichia coli. (2002) Molecular Microbiology, 45(5), 1289-1302), and Escherichia coli ATCC 25922 (E. coli), a clinically relevant Gram-negative strain. Cells were inoculated onto plates of Trypyticase Soy Agar or Luria Agar respectively and grown at 35° C. for 20 hours. Inocula suspensions were prepared by scraping cells into 1 mL of testing media (cation adjusted Mueller Hinton Broth supplemented with 0.002% v/v Tween-80) and diluting to a final OD600 nm of 0.01.\n(§2) Test compounds were prepared in DMSO at a concentration of 10 mg/mL. […] In protocol 2, the compound stocks were diluted into testing media at a concentration of 4 μg/mL and serial 2-fold dilutions were made in the same media, in 96-well U bottom microtiter dishes, for a total of 10 compound concentrations. In protocol 3, compound stocks were diluted into testing media at a concentration of 0.5 μg/mL, with serial 2-fold dilutions conducted as described above. […] Inocula suspensions were added to the 2-fold serial dilutions of test compounds to a final density of OD OD600 nm of 0.0005 and incubated at 35° C. for 22 hours."}, "[2]": {"test_system": "Escherichia coli ATCC 25922", "assay": "Minimum inhibitory concentration, broth micro-dilution (CLSI), E. coli", "details": "Escherichia coli, ATCC25922, 22 h, E. coli ATCC 25922; 35° C., 22 hours; read-out: MIC (μg/mL) E. coli", "description": "Cells were inoculated onto plates of Trypyticase Soy Agar or Luria Agar respectively and grown at 35° C. for 20 hours. Inocula suspensions were prepared by scraping cells into 1 mL of testing media (cation adjusted Mueller Hinton Broth supplemented with 0.002% v/v Tween-80) and diluting to a final OD600 nm of 0.01.\nas §2"}, "[3]": {"test_system": "Methicillin Resistant Staphylococcus aureus strain USA 300, NRS384", "assay": "Minimum inhibitory concentration, broth micro-dilution (CLSI), S. aureus", "details": "Staphylococcus aureus, MRSA / NRS 384 / USA300, 22 h, MRSA USA 300 NRS384; 35° C., 22 hours; read-out: MIC (μg/mL) S. aureus", "description": "as §1, §2"}}, "data": [{"compound": "Cc1cc(-c2ccc(CC(C)C)nn2)ccc1C(=O)N[C@@H](CCN)C(=O)N(C)[C@@H]1C(=O)N[C@@H](C)C(=O)N[C@H](C(=O)NCC#N)Cc2ccc(OCCN)c(c2)-c2cc1ccc2OCCN", "note": "[Compound 180]", "values": [{"measurement": "MIC", "setting": "[1]", "value": 0.38, "unit": "µg/mL"}, {"measurement": "MIC", "setting": "[2]", "value": 8, "unit": "µg/mL"}, {"measurement": "MIC", "setting": "[3]", "value": 1, "unit": "µg/mL"}]}, {"compound": "Cc1cc(-c2ccc(CC(C)C)nc2)ccc1C(=O)N[C@@H](CCN)C(=O)N(C)[C@@H]1C(=O)N[C@@H](C)C(=O)N[C@H](C(=O)NCC#N)Cc2ccc(OCCN)c(c2)-c2cc1ccc2OCCN", "note": "[Compound 181]", "values": [{"measurement": "MIC", "setting": "[1]", "value": 0.031, "unit": "µg/mL"}, {"measurement": "MIC", "setting": "[2]", "value": 2, "unit": "µg/mL"}, {"measurement": "MIC", "setting": "[3]", "value": 0.13, "unit": "µg/mL"}]}, {"compound": "CCCCCCCc1cc(C)c(C(=O)N[C@@H](CCN)C(=O)N(C)[C@@H]2C(=O)N[C@@H](C)C(=O)N[C@H](C(=O)NCC#N)Cc3ccc(OCCN)c(c3)-c3cc2ccc3OCCN)c(C)c1", "note": "[Compound 189]", "values": [{"measurement": "MIC", "setting": "[1]", "value": 0.023, "unit": "µg/mL"}, {"measurement": "MIC", "setting": "[2]", "value": 0.19, "unit": "µg/mL"}, {"measurement": "MIC", "setting": "[3]", "value": 0.031, "unit": "µg/mL"}]}, {"compound": "CCCCc1cccc(C(=O)N[C@@H](CCCN)C(=O)N(C)[C@@H]2C(=O)N[C@@H](C)C(=O)N[C@H](C(=O)NCC#N)Cc3ccc(OCCN)c(c3)-c3cc2ccc3OCCN)c1C", "note": "[Compound 206]", "values": [{"measurement": "MIC", "setting": "[1]", "value": 0.094, "unit": "µg/mL"}, {"measurement": "MIC", "setting": "[2]", "value": 16, "unit": "µg/mL"}, {"measurement": "MIC", "setting": "[3]", "value": 0.38, "unit": "µg/mL"}]}, {"compound": "CCCCc1ccc(C)c(C(=O)N[C@@H](CCCN)C(=O)N(C)[C@@H]2C(=O)N[C@@H](C)C(=O)N[C@H](C(=O)NCC#N)Cc3ccc(OCCN)c(c3)-c3cc2ccc3OCCN)c1", "note": "[Compound 207]", "values": [{"measurement": "MIC", "setting": "[1]", "value": 0.063, "unit": "µg/mL"}, {"measurement": "MIC", "setting": "[2]", "value": 16, "unit": "µg/mL"}, {"measurement": "MIC", "setting": "[3]", "value": 1.5, "unit": "µg/mL"}]}, {"compound": "CCCCCCCCc1ccc(C(=O)N[C@@H](CCN)C(=O)N(C)[C@@H]2C(=O)N[C@@H](C)C(=O)N[C@H](C(=O)NCC#N)Cc3ccc(OCCN)c(c3)-c3cc2ccc3OCCN)c(Br)c1", "note": "[Compound 211]", "values": [{"measurement": "MIC", "setting": "[1]", "value": 0.055, "unit": "µg/mL"}, {"measurement": "MIC", "setting": "[2]", "value": 0.11, "unit": "µg/mL"}, {"measurement": "MIC", "setting": "[3]", "value": 0.063, "unit": "µg/mL"}]}, {"compound": "Cc1cc(-c2ccc(CC(C)C)cc2)ccc1C(=O)N[C@@H](CC(N)=O)C(=O)N(C)[C@@H]1C(=O)N[C@@H](C)C(=O)N[C@H](C(=O)NCC#N)Cc2ccc(OCCN)c(c2)-c2cc1ccc2OCCN", "note": "[Compound 240]", "values": [{"measurement": "MIC", "setting": "[1]", "value": 0.094, "unit": "µg/mL"}, {"measurement": "MIC", "setting": "[2]", "value": 1.5, "unit": "µg/mL"}, {"measurement": "MIC", "setting": "[3]", "value": 0.19, "unit": "µg/mL"}]}, {"compound": "CCCCCCCCc1ccc(C(=O)N[C@@H](CCC(N)=O)C(=O)N(C)[C@@H]2C(=O)N[C@@H](C)C(=O)N[C@H](C(=O)NCC#N)Cc3ccc(OCCN)c(c3)-c3cc2ccc3OCCN)c(C)c1", "note": "[Compound 247]", "values": [{"measurement": "MIC", "setting": "[1]", "value": 0.094, "unit": "µg/mL"}, {"measurement": "MIC", "setting": "[2]", "value": 2, "unit": "µg/mL"}, {"measurement": "MIC", "setting": "[3]", "value": 0.094, "unit": "µg/mL"}]}, {"compound": "Cc1cc(-c2ccc(CC(C)C)cc2)ccc1C(=O)N[C@@H](CCC(N)=O)C(=O)N(C)[C@@H]1C(=O)N[C@@H](C)C(=O)N[C@H](C(=O)NCC#N)Cc2ccc(OCCN)c(c2)-c2cc1ccc2OCCN", "note": "[Compound 248]", "values": [{"measurement": "MIC", "setting": "[1]", "value": 0.094, "unit": "µg/mL"}, {"measurement": "MIC", "setting": "[2]", "value": 1, "unit": "µg/mL"}, {"measurement": "MIC", "setting": "[3]", "value": 0.19, "unit": "µg/mL"}]}, {"compound": "CCCCCCCCc1ccc(C(=O)N[C@H](C)C(=O)N(C)[C@@H]2C(=O)N[C@@H](C)C(=O)N[C@H](C(=O)NCC#N)Cc3ccc(OCCN)c(c3)-c3cc2ccc3OCCN)c(C)c1", "note": "[Compound 251]", "values": [{"measurement": "MIC", "setting": "[1]", "value": 4, "unit": "µg/mL"}, {"measurement": "MIC", "setting": "[2]", "value": 8, "unit": "µg/mL"}, {"measurement": "MIC", "setting": "[3]", "value": 4, "unit": "µg/mL"}]}, {"compound": "CCCCCCCCc1ccc(C(=O)NCC(=O)N(C)[C@@H]2C(=O)N[C@@H](C)C(=O)N[C@H](C(=O)NCC#N)Cc3ccc(OCCN)c(c3)-c3cc2ccc3OCCN)c(C)c1", "note": "[Compound 252]", "values": [{"measurement": "MIC", "setting": "[1]", "value": 0.023, "unit": "µg/mL"}, {"measurement": "MIC", "setting": "[2]", "value": 2, "unit": "µg/mL"}, {"measurement": "MIC", "setting": "[3]", "value": 0.25, "unit": "µg/mL"}]}, {"compound": "C[C@@H]1NC(=O)[C@@H](N(C)C(=O)[C@H](CCO)NC(=O)c2ccc(-c3ccc(Cl)cc3)cc2)c2ccc(OCCN)c(c2)-c2cc(ccc2OCCN)C[C@@H](C(=O)NCC#N)NC1=O", "note": "[Compound 259]", "values": [{"measurement": "MIC", "setting": "[1]", "value": 0.25, "unit": "µg/mL"}, {"measurement": "MIC", "setting": "[2]", "value": 64, "unit": "µg/mL"}, {"measurement": "MIC", "setting": "[3]", "value": 0.5, "unit": "µg/mL"}]}, {"compound": "Cc1cc(OCC2CCC(F)(F)CC2)ccc1C(=O)N[C@@H](CCN)C(=O)N(C)[C@@H]1C(=O)N[C@@H](C)C(=O)N[C@H](C(=O)NCC#N)Cc2ccc(OCCN)c(c2)-c2cc1ccc2OCCN", "note": "[Compound 278]", "values": [{"measurement": "MIC", "setting": "[1]", "value": 0.13, "unit": "µg/mL"}, {"measurement": "MIC", "setting": "[2]", "value": 4, "unit": "µg/mL"}, {"measurement": "MIC", "setting": "[3]", "value": 0.5, "unit": "µg/mL"}]}, {"compound": "C[C@@H]1NC(=O)[C@@H](N(C)C(=O)[C@H](CCN)NC(=O)c2ccc(OCC(C)(C)C)cc2Cl)c2ccc(OCCN)c(c2)-c2cc(ccc2OCCN)C[C@@H](C(=O)NCC#N)NC1=O", "note": "[Compound 279]", "values": [{"measurement": "MIC", "setting": "[1]", "value": 0.02, "unit": "µg/mL"}, {"measurement": "MIC", "setting": "[2]", "value": 0.5, "unit": "µg/mL"}, {"measurement": "MIC", "setting": "[3]", "value": 0.13, "unit": "µg/mL"}]}]}
